In PubChem BioAssay (NCI):
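Each compound was tested at five concentrations against cells in 96-well plates for 48 hours. TGI: total growth inhibition.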

What was measured:
Assay in all cases: inhibition of tumour cell growth, NCI panel, 48 h
[1] = system: HCT-116 colon
[2] = system: OVCAR-3 ovarian
[3] = system: UACC-62 melanoma
[4] = system: ACHN renal
[5] = system: CAKI-1 renal
[6] = system: SNB-19 CNS
[7] = system: T-47D breast
[8] = system: K-562 leukemia
[9] = system: 786-0 renal
[10] = system: SN12C renal

Compound	TGI [1] [µM]	TGI [2] [µM]	TGI [3] [µM]	TGI [4] [µM]	TGI [5] [µM]	TGI [6] [µM]	TGI [7] [µM]	TGI [8] [µM]	TGI [9] [µM]	TGI [10] [µM]
CSC(SC)=C(C(=O)c1ccc(Cl)cc1)n1c(=O)sc2cc(Br)ccc21	> 100	> 100	> 100	> 100	> 100	> 100	> 100	> 100	> 100	> 100
Cn1c(=O)c2c(nc3[nH]c(=O)c(Br)cn32)n(C)c1=O	> 100	> 100	> 100	> 100	> 100	> 100	> 100	> 100	> 100	> 100
O=C1[C@@H]2[C@@H](CN3CN(c4ccccc4)N=C(c4ccccc4)[C@@]23c2ccccc2)C(=O)N1c1ccccc1	31.8	21.2	20.1	3.69	2.45	36.8	8.04	> 25.4	5.56	18.4
COc1ccc(-c2ccc(C(=O)C=P(c3ccccc3)(c3ccccc3)c3ccccc3)cc2)cc1	32.3	20.1	28.9	30.7	42	> 100	62.3	20.6	37.5	28.5
COC1(CC[C@@H](C)COC2OC(CO)C(O)C(O)C2O)OC2C[C@H]3[C@@H]4CC[C@H]5C[C@@H](OC6OC(CO)C(OC7OC(CO)C(O)C(O)C7O)C(O)C6OC6OC(C)C(O)C(O)C6O)[C@H](O)C[C@]5(C)[C@H]4CC[C@]3(C)C2[C@@H]1C (stereo not given in full)	3.67	3.3	3.45	3.33	4.29	3.55	9.01	7.81	4.04	3.42
COc1cc2c(cc1OC)C(=O)N(c1ccc(OCCN3CCCC3)cc1)C2	> 100	> 100	> 100	> 100	> 100	> 100	> 100	> 100	> 100	> 100
CN1CCN(C(=O)c2cn(Cc3cncn3Cc3ccc4c(c3)OCO4)cc2-c2cccc3ccccc23)CC1	> 100	> 91.3	46.8	> 100	> 84.9	> 100	> 100	53.5	> 86	> 100
NC(=O)[C@H](Cc1ccc(O)cc1)Nc1c(O)c2c(c(O)c1Cl)C(=O)C=CC2=O	3.27	> 5.74	4.29	6.61	5.18	> 10	5.27	5.37	4.62	> 6.94
CCC1(O)CC(CCN(Cc2ccccc2)C(=O)OCc2ccccc2)C(OCc2ccccc2)C1O (stereo not given)	48.8	26.8	28.3	32.2	65.7	31.6	30.6	19.5	39.3	82
CC(O)c1nc(C#N)c(N)o1 (stereo not given)	> 100	> 100	> 100	> 100	> 100	> 100	> 100	> 100	> 100	> 100
O=C(O)C(Cc1ccccc1)NCc1c(O)ccc2c(-c3ccccc3)cc(=O)oc12 (stereo not given)	> 100	> 100	> 100	> 100	> 100	> 100	> 100	> 100	> 100	> 100
N#Cc1c(NC(=S)Nc2ccc(Cl)cc2)sc2c1CCN(N1CCc3c(sc(NC(=S)Nc4ccc(Cl)cc4)c3C#N)C1)C2	> 100	> 100	41.8	> 100	> 100	> 100	> 100	> 100	58.8	> 100
COc1cc(CCNC2=CC(=O)c3nc[nH]c3C2=O)ccc1O	48	30.5	36.8	> 100	> 100	33.3	73.2	> 100	> 100	> 100
Nc1c(C(=O)c2ccc(Cl)c(Cl)c2)[nH]c(NCc2ccccc2)c1C(=S)Nc1ccccc1	12.6	38.5	29.2	28.1	32.2	37.7	81.2	> 100	27.9	29.2
C=C(Br)CN=CN(C)C	> 100	> 100	> 100	> 100	> 100	> 100	> 100	> 100	> 100	> 100
CCOC(=O)c1cc(-c2ccc(OC)cc2)c([N+](=O)[O-])[nH]1	> 10	> 10	> 10	> 10	> 10	> 10	> 10	> 10	> 10	> 10
CC(=O)n1[nH]c(=O)n(-c2ccc(Cl)cc2)c1=O	> 100	> 100	> 100	> 100	> 100	> 100	> 100	> 100	> 100	> 100
Clc1ccc2c(c1)N(CCCN1CCCC13CCCCC3)c1ccccc1S2	30.7	34.4	31.1	47.5	> 76.8	34.3	30	21.6	23.7	26.8

Compound	TGI [1] [µM]	TGI [2] [µM]	TGI [3] [µM]	TGI [4] [µM]	TGI [5] [µM]	TGI [6] [µM]	TGI [7] [µM]	TGI [8] [µM]	TGI [9] [µM]	TGI [10] [µM]
O=CCCCCCOCc1ccccc1	> 67.9	> 100	> 89.4	> 100	> 66.8	> 100	> 100	> 31.7	68.1	32.6
CCC1(c2ccc(N3C(=O)c4cccc5cc([N+](=O)[O-])cc(c45)C3=O)cc2)CCC(=O)NC1=O (stereo not given)	21.6	56.5	> 100	43.5	50.9	> 74.3	> 100	> 100	21.6	24.8
CCc1nc(N)c2nc(-c3cccs3)oc2n1	> 100	> 100	> 100	> 100	> 100	> 100	> 100	> 100	> 100	> 100
FC1=C2C3CCC(C3)C2C1(F)F (stereo not given)	> 100	> 100	> 100	> 100	> 100	> 100	> 100	> 100	> 100	> 100
Oc1ccc(C(O)C2CCCCN2)cc1O (stereo not given)	> 100	> 100	> 100	> 100	> 100	> 100	54.3	> 100	35.2	> 100
Cc1cn(CCCCCCOC(=O)NC(CCCNC(N)=O)C(=O)O)c(=O)[nH]c1=O (stereo not given)	> 100	> 100	> 100	> 100	> 100	> 100	> 100	> 100	> 100	> 100
COC(=O)c1sc(=O)sc1SCc1cccc(CSc2sc(=O)sc2C(=O)OC)c1	> 100	> 100	> 100	> 100	93.5	61.6	> 100	> 100	31.4	> 100
CC(=O)CC1(CBr)Nc2ccc([N+](=O)[O-])cc2NC1=O (stereo not given)	> 100	> 100	> 100	> 100	> 100	> 100	> 100	> 100	> 100	> 100
Clc1ccc2c(NCCCCCCNc3ccnc4cc(Cl)ccc34)ccnc2c1	3.85	3.77	8.66	8.91	24.1	13.5	5.42	4.98	4.15	16.6
CCOC(=O)c1c(-c2ccc(OC)cc2)ccn1C	> 10	> 10	> 10	> 10	> 10	> 10	> 10	> 10	> 10	> 10
COc1cccc2c1C(=O)c1c(O)c3c(c(O)c1C2=O)C[C@@](O)(C(C)=O)CC3OC1CC(OC2CC(N)C(O)C(C)O2)C(O)C(C)O1 (stereo not given in full)	> 100	> 100	> 100	> 100	> 100	> 85.1	> 100	> 100	> 100	> 100
Cn1/c(=N\N=C2\C=C3CCCCC3(C)CC2)sc2ccccc21 (stereo not given)	> 100	> 100	> 100	> 100	> 100	> 100	> 100	> 100	> 100	> 100
O=S(=O)(Nc1nc2ccccc2nc1N1CCCCCC1)c1ccccc1	> 100	36.5	52.9	86.7	> 100	> 100	> 100	> 100	> 100	> 100
ClC1=NN=C(c2c[nH]c3ccccc23)CC1NCc1ccccc1 (stereo not given)	> 100	> 100	> 100	> 100	> 100	> 100	> 100	> 100	> 100	> 100
CC(=O)NC1C(OCc2ccccc2)OC(CO)C(O)C1OC(C)C(=O)N[C@@H](C)C(=O)N[C@H](CCC(=O)NCCNCCNc1c2ccccc2nc2cccc([N+](=O)[O-])c12)C(N)=O (stereo not given in full)	0.512	4.44	0.199	0.512	0.565	1.86	0.598	> 100	0.921	0.99
O=C1Nc2ccccc2/C1=C\c1c(Cl)n(-c2ccccc2)c2ccccc12	6.26	4.86	66.7	29.7	21.9	13.3	56.7	> 100	7.71	14.6
O=c1[nH]c(=O)n(COC(CO)CO)cc1-c1ccccc1	> 100	> 100	> 100	> 100	> 100	> 100	> 100	> 100	> 100	> 100
